Test system: NHBE cells
Experiment: Biolog metabolic array: substrate use by NHBE cells with or without CA09 infection
Assay type: cell-based, human
Details: for Substrate use, 590 nm absorbance normalized to zero hour, 0 hr: Biolog PMM2, 0 hr; for Substrate use, 590 nm absorbance normalized to zero hour, 1 hr: Biolog PMM2, 1 hr; for Substrate use, 590 nm absorbance normalized to zero hour, 5 hr: Biolog PMM2, 5 hr; for Substrate use, 590 nm absorbance normalized to zero hour, 7 hr: Biolog PMM2, 7 hr
[1] = Control (uninfected) NHBE cells
[2] = Virus (CA09-infected, MOI 1) NHBE cells
[3] = Virus: CA09-infected NHBE cells, MOI 1, Biolog PMM2
[4] = Virus (CA09, MOI 1) infected NHBE cells

| Compound | 590 nm absorbance normalized to zero hour (substrate use), 1 hr [1] | 590 nm absorbance normalized to zero hour (substrate use), 2 hr [1] | 590 nm absorbance normalized to zero hour (substrate use), 3 hr [1] | 590 nm absorbance normalized to zero hour (substrate use), 4 hr [1] | 590 nm absorbance normalized to zero hour (substrate use), 6 hr [1] | 590 nm absorbance normalized to zero hour (substrate use), 8 hr [1] | 590 nm absorbance normalized to zero hour (substrate use), 9 hr [1] | 590 nm absorbance normalized to zero hour (substrate use), 10 hr [1] | 590 nm absorbance normalized to zero hour (substrate use), 11 hr [1] | Substrate use, 590 nm absorbance normalized to zero hour, 1 hr [1] | Substrate use, 590 nm absorbance normalized to zero hour, 5 hr [1] | Substrate use, 590 nm absorbance normalized to zero hour, 7 hr [1] | 590 nm absorbance normalized to zero hour (substrate use), 1 hr [2] | 590 nm absorbance normalized to zero hour (substrate use), 2 hr [2] | 590 nm absorbance normalized to zero hour (substrate use), 3 hr [2] | 590 nm absorbance normalized to zero hour (substrate use), 4 hr [2] | 590 nm absorbance normalized to zero hour (substrate use), 6 hr [2] | 590 nm absorbance normalized to zero hour (substrate use), 8 hr [2] | 590 nm absorbance normalized to zero hour (substrate use), 9 hr [2] | 590 nm absorbance normalized to zero hour (substrate use), 10 hr [2] | also measured |
| --- | --- | --- | --- | --- | --- | --- | --- | --- | --- | --- | --- | --- | --- | --- | --- | --- | --- | --- | --- | --- | --- |
| Pectin | 3.40 | 1.82 | 1.76 | 1.72 | 2.65 | 0.95 | 1.44 | 1.37 | 0.91 | 3.40 | 1.45 | 1.44 | 3.25 | 2.85 | 0.75 | 0.80 | 0.95 | 1.05 | 1.15 | 1.17 | 590 nm absorbance normalized to zero hour (substrate use), 0 hr [1]: 1.00; Substrate use, 590 nm absorbance normalized to zero hour, 0 hr [1]: 1.00; 590 nm absorbance normalized to zero hour (substrate use), 0 hr [2]: 1.00; 590 nm absorbance normalized to zero hour (substrate use), 5 hr [2]: 0.91; 590 nm absorbance normalized to zero hour (substrate use), 7 hr [2]: 1.00; 590 nm absorbance normalized to zero hour (substrate use), 11 hr [2]: 1.27; 590 nm absorbance normalized to zero hour (substrate use), 0 hr [3]: 1.00; 590 nm absorbance normalized to zero hour (substrate use), 1 hr [3]: 3.25; 590 nm absorbance normalized to zero hour (substrate use), 2 hr [3]: 2.85; 590 nm absorbance normalized to zero hour (substrate use), 3 hr [3]: 0.75; 590 nm absorbance normalized to zero hour (substrate use), 4 hr [3]: 0.80; 590 nm absorbance normalized to zero hour (substrate use), 5 hr [3]: 0.91; 590 nm absorbance normalized to zero hour (substrate use), 6 hr [3]: 0.95; 590 nm absorbance normalized to zero hour (substrate use), 7 hr [3]: 1.00; 590 nm absorbance normalized to zero hour (substrate use), 8 hr [3]: 1.05; 590 nm absorbance normalized to zero hour (substrate use), 9 hr [3]: 1.15; 590 nm absorbance normalized to zero hour (substrate use), 10 hr [3]: 1.17; 590 nm absorbance normalized to zero hour (substrate use), 11 hr [3]: 1.27 |
| CC(=O)N[C@H]1[C@H]([C@H](O)[C@H](O)CO)OC(O)(C(=O)O)C[C@@H]1O (stereo partly drawn) [n-acetyl-neuraminic acid] | 0.19 | 0.21 | 0.19 | 0.20 | 0.36 | 0.27 | 0.29 | 0.32 | 0.25 | 0.19 | 0.23 | 0.26 | 4.77 | 3.35 | 3.95 | 3.57 | 2.71 | 1.60 | 1.61 | 1.82 | 590 nm absorbance normalized to zero hour (substrate use), 0 hr [1]: 1.00; Substrate use, 590 nm absorbance normalized to zero hour, 0 hr [1]: 1.00; Substrate use, 590 nm absorbance normalized to zero hour, 0 hr [4]: 1.00; Substrate use, 590 nm absorbance normalized to zero hour, 1 hr [4]: 4.77; Substrate use, 590 nm absorbance normalized to zero hour, 5 hr [4]: 1.43; Substrate use, 590 nm absorbance normalized to zero hour, 7 hr [4]: 1.58; 590 nm absorbance normalized to zero hour (substrate use), 0 hr [2]: 1.00; 590 nm absorbance normalized to zero hour (substrate use), 11 hr [2]: 2.21 |
| OC[C@H]1O[C@H](O[C@H]2[C@H](O)[C@@H](O)[C@H](O)O[C@@H]2CO)[C@H](O)[C@@H](O)[C@@H]1O [Maltose] | 1.07 | 1.04 | 1.27 | 1.22 | 1.72 | 1.68 | 1.97 | 1.93 | 2.37 | 1.07 | 1.53 | 1.53 | 2.29 | 3.23 | 3.88 | 4.21 | 5.86 | 7.01 | 8.07 | 8.77 | Substrate use, 590 nm absorbance normalized to zero hour, 1 hr [4]: 2.29; Substrate use, 590 nm absorbance normalized to zero hour, 5 hr [4]: 5.22; Substrate use, 590 nm absorbance normalized to zero hour, 7 hr [4]: 6.41; 590 nm absorbance normalized to zero hour (substrate use), 11 hr [2]: 8.43 |

Source: US11083725B2 (priority 2014, dated 2021)
